Experimental data: article PMC10290391, “Targeted degradation of ⍺-synuclein aggregates in Parkinson’s disease using the AUTOTAC technology” (Molecular Neurodegeneration, 2023)
“And” between values parts separate entries of the source, which are not always exact repeats. Equal entries are not always repeated. “Also recorded” adds a separate entry of the source.

How the values were obtained:
[1] = system: extracellular total α-syn; assay: ELISA of extracellular α-syn in conditioned media of SH-SY5Y α-syn A53T cells; format: cell-based, human
Procedure: The conditioned medium was collected from differentiated SH-SY5Y cells infected with adenovirus overexpressing human α-syn. Following 24 h infection, the medium was replaced with fresh media containing DMSO or ATC161. The medium was collected after 24 h and centrifuged at 1,000 rpm to remove cell debris and dead cells. The supernatant was concentrated using Amicon 10 K MWCO filters (Millipore, Billerica, MA). The amounts of α-syn in conditioned medium were measured by enzyme-linked immunosorbent assay (ELISA) with an ELISA kit (Abcam, human α-syn ELISA kit, ab260052) following the provider’s instruction. The subsets of collected media were treated to fresh SH-SY5Y cells in order to determine the level of α-syn propagated to the fresh cells.

LAMP1+ lysosomes = assay: Immunocytochemistry of LAMP1+ lysosomes in SH-SY5Y α-syn A53T cells transduced with PFFs; format: cell-based, human; conditions: 1 μM, 6 h, with Baf. A1
Procedure: Cells were fixed with 4% paraformaldehyde (PFA) for 20 min at room temperature, followed by permeabilization with 0.1% Triton X-100 buffer for 15 min. The cells were blocked with 2% bovine serum albumin (BSA) in PBS for 1 h at room temperature. Then, the cells were incubated with primary antibodies diluted in the blocking buffer overnight at 4 °C. After washing with PBS, the slides were incubated with AlexaFluor-conjugated secondary antibodies for 1 h at room temperature. After mounting the slides with mounting solution containing DAPI, the images were captured on an LSM700 confocal microscopy (Carl Zeiss).

LC3 = assay: Western blot of LC3 lipidation (LC3-I into LC3-II) in HeLa cells; format: cell-based; conditions: 1 μM, 24 h
Procedure: (§1) For the separation of Triton X-100 soluble and insoluble fractions for monitoring α-syn, cells were washed with PBS and lysed in Triton X-100 buffer (50 mM Tris / 150 mM NaCl / 100 mM EDTA / 1% Triton X-100, pH 7.6) containing protease and phosphatase inhibitors for 30 min on ice. The lysates were centrifuged at 12,000 rpm for 30 min, and the soluble supernatant was taken. The remaining pellets were washed with Triton X-100 buffer, followed by centrifugation at 12,000 rpm for 20 min. The supernatants were discarded, and the resulting insoluble pellets were resuspended in laemli buffer containing 1% SDS. Samples were subjected to SDS-PAGE. After blocking with 5% milk and washing process, the membranes were incubated with primary antibodies overnight at 4 °C, followed by washing with PBS-T and incubation with horseradish peroxidase-conjugated secondary antibodies. Immunoreactive bands were detected using ECL reagents (Thermo Fisher Scientific, 32,106). For non-reducing SDS-PAGE, cell lysates were mixed with 4 × laemli buffer containing no 2-mercaptoethanol. For reducing SDS-PAGE, cells were lysed by RIPA buffer (150 mM NaCl, 1% Triton X-100, 1% sodium deoxycholate, 0.1% Tris–HCl, pH 7.5, 2 mM EDTA) and prepared with 5 × protein sample buffer containing 2-mercaptoethanol (Elpis Biotech, EBA-1052). Densitometry of developed bands was analyzed with ImageJ (NIH, Bethesda).

p62 and α-syn aggregates = molecular target: T1, p62 and α-syn aggregates (Homo sapiens, UniProt P37840+Q13501); assay: Proximity ligation assay (PLA) of p62 and α-syn in HEK293A cells; format: cell-based; conditions: 1 μM, 6 h
T1 construct: Recombinant human α-syn (1–140) were obtained from NKMAX (SNA2001L); endogenous in cells; host or cells: HEK293A cells transduced with h-α-syn PFFs
Procedure: Proximity ligation assays were conducted using a PLA kit (Sigma-Aldrich) according to the manufacturer’s protocol. 293A Cells were seeded on coverslips and cultured for 24 h. After fixation with 4% PFA, the cells were permeabilized with 0.1% Triton X-100. The cells were incubated with antibodies for p62 (Abcam; ab56319) and alpha-synuclein aggregates (Abcam; ab209538) overnight at 4 °C. After washing with PLA washing buffer, the cells were hybridized, ligated and amplified by rolling circle. Coverslips were mounted on slides using mounting medium containing DAPI, and the images were captured by confocal microscopy (Zeiss).

cleaved-PARP1 = assay: Western blot of cleaved-PARP1 in h-α-syn PFF-transduced HEK293A cells; format: cell-based, human; conditions: 1 μM, 24 h
Procedure: as §1

insoluble α-syn species = assay: Triton X-100 fractionation assay in primary rat cortex neurons; format: cell-based
Procedure: All procedures were conducted according to the IACUC and were approved by Seoul National University Institutional Animal Care and Use Committee. Rat cortex primary neuron were prepared from E16 Sprague–Dawley rat embryos (Orient Bio). Anesthetized […] were sacrificed by cervical dislocation, and embryos were removed. Cortices were dissected on the ice. Neurons were trypsinized, dissociated and plated onto poly-d-lysine coated cover slips at a density of 5 × 10^4 cells per cm^2 per 12-well plate or 6-well plate. Primary neurons were maintained in Neurobasal A medium containing 2% B27, 0.5 mM glutamax and antibiotics. Cells at 7 DIV were treated with h-α-syn PFF (1 µg/mL) for 14 d.
(§2) For the separation of Triton X-100 soluble and insoluble fractions for monitoring α-syn, cells were washed with PBS and lysed in Triton X-100 buffer (50 mM Tris / 150 mM NaCl / 100 mM EDTA / 1% Triton X-100, pH 7.6) containing protease and phosphatase inhibitors for 30 min on ice. The lysates were centrifuged at 12,000 rpm for 30 min, and the soluble supernatant was taken. The remaining pellets were washed with Triton X-100 buffer, followed by centrifugation at 12,000 rpm for 20 min. […] Immunoreactive bands were detected using ECL reagents (Thermo Fisher Scientific, 32,106). […] Densitometry of developed bands was analyzed with ImageJ (NIH, Bethesda).

α-syn aggregates = assay: Triton X-100 fractionation assay in SH-SY5Y α-syn A53T cells transduced with α-syn PFFs; format: cell-based, human
Procedure: Recombinant human α-syn (1–140) were obtained from NKMAX (SNA2001L). In vitro fibrillization was performed by diluting recombinant α-syn monomers to 1 mg/mL in sterile PBS, then incubating at 37 °C with constant agitation at 1,000 rpm for seven days. The fibrillization was verified by thioflavin T and sedimentation assays. The ability to form phospho-α-syn (S129) was also assessed by immunocytochemistry. In addition, to determine whether the generated PFFs act as seeds to accumulate endogenous α-syn, an adenovirus that expresses c-Myc-His-tagged human α-syn (gifted from lab of S.J.L) was used to infect cultured cells at an MOI of 10, followed by a fractionation assay. The administration of PFFs into 293A cells was done with protein delivery reagent (BioPORTER QuikEase Protein Delivery Kit, Sigma) following the provider’s instruction. The mouse α-syn PFFs were obtained from StressMarq (SPR-324). […]
as §2, with “ice.” for “ice. The lysates were centrifuged at 12,000 rpm for 30 min, and the soluble supernatant was taken. The remaining pellets were washed with Triton X-100 buffer, followed by centrifugation at 12,000 rpm for 20 min.”

## Fc1ccc(COc2cccc(CNCCOCCOCCNc3cccc(-c4cc(-c5ccc6c(c5)OCO6)n[nH]4)c3)c2)cc1 [ATC161, 3-(3-(benzo[d][1,3]dioxol-5-yl)-1H-pyrazol-5-yl)-N-(2-(2-(2-((3-((4-fluorobenzyl)oxy)benzyl)amino)ethoxy)ethoxy)ethyl)aniline]
[1]
  reduction of relative level of extracellular total α-syn: 50%
LAMP1+ lysosomes
  increase in level of LAMP1+ lysosomes: 2.9 fold
LC3
  lipidation of LC3 into LC3-II compared with ATC162: induced the lipidation of LC3 into LC3-II more efficiently
p62 and α-syn aggregates; cells transduced with α-syn monomers
  PLA+ signals of p62 with α-syn monomers: failed to induce PLA^+ signals
p62 and α-syn aggregates; α-syn PFF-transduced cells
  interaction between p62 and α-syn aggregates (PLA puncta): dramatically increased the number and sizes of PLA puncta
cleaved-PARP1
  cleaved-PARP1 level (apoptotic process): efficiently inhibited such an apoptotic process
Insoluble α-syn species; PD model cells (discussion)
  concentration of lysosomal degradation of aggregates: 10 nM
Insoluble α-syn species; primary rat cortex neurons, soluble monomeric form intact
  concentration from which insoluble α-syn species are targeted: 10 nM
α-syn aggregates; Triton X-100 insoluble fraction, read-out: half degradation concentration (DC50) of α-syn aggregates
  DC50: ~100 nM and 100 nM
α-syn aggregates; soluble fraction
  degradation of monomeric α-syn: No apparent degradation; also recorded: no such degradation was observed
